50 compounds from patent US8633183B2 (priority 2010, dated 2014) can be followed below.

For this experiment, the target named is PI3Kalpha (Homo sapiens (Human), UniProt P42336). The note with it: read-out: IC50 PI3K.
PI3Kalpha, sequence (P42336 whole entry, looked up): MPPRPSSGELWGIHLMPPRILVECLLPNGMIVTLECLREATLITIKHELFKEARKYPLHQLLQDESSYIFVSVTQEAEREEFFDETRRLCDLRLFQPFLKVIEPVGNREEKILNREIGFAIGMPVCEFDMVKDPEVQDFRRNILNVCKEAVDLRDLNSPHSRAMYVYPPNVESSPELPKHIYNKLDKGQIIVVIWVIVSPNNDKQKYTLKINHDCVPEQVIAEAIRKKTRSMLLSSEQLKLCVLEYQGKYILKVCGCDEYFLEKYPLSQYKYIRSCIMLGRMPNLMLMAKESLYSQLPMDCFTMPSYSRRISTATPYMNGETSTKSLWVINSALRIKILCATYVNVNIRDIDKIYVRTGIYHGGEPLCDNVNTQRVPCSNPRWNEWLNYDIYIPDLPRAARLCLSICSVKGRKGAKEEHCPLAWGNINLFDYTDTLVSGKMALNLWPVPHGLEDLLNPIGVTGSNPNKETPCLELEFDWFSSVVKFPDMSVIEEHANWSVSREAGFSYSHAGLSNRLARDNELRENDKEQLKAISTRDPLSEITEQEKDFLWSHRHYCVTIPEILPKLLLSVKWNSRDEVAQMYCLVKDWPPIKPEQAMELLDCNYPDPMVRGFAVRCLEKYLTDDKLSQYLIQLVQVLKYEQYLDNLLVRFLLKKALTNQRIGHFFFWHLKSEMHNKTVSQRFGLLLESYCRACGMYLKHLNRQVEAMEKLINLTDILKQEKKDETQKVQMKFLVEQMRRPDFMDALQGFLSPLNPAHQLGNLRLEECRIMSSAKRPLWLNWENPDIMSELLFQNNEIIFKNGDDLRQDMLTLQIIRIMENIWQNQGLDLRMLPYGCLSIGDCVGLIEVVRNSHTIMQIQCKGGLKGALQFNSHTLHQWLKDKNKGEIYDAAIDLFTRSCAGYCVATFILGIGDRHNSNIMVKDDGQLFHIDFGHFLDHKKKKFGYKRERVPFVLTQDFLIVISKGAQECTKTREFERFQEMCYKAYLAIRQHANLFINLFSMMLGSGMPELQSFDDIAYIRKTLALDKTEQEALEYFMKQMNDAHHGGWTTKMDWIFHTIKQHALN
`CCc1ncnc(-c2ccc(C(=O)NC3CCS(=O)(=O)C3)c(F)c2)c1C#Cc1ccc(N)nc1` [Example D-212]: the half-inhibitory concentration (IC50) turned out to be 79 nM.

`CCc1ncnc(-c2ccc(C(=O)NC3CC(C)(C)NC(C)(C)C3)c(F)c2)c1C#Cc1ccc(N)nc1` [Example D-213]: the IC50 amounted to 272 nM.

In the case of `CCc1ncnc(-c2ccc(C(=O)NCC3(C)COC3)c(F)c2)c1C#Cc1ccc(N)nc1` [Example D-214], the IC50 was 72 nM. The figure for `CCc1ncnc(-c2ccc(C(=O)N3CCC(N(C)C)C3)c(F)c2)c1C#Cc1ccc(N)nc1` [Example D-215] is 227 nM; for `CCc1ncnc(-c2ccc(C(=O)N(C)C3CCS(=O)(=O)C3)c(F)c2)c1C#Cc1ccc(N)nc1` [Example D-216] it is 59 nM. For `CCc1ncnc(-c2ccc(C(=O)NCCN3CCOCC3)c(F)c2)c1C#Cc1ccc(N)nc1` [Example D-217] the value was 44 nM; for `CCc1ncnc(-c2ccc(C(=O)N3CCCO3)c(F)c2)c1C#Cc1ccc(N)nc1` [Example D-218], 80 nM.

With `CCc1ncnc(-c2ccc(C(=O)N3CCCCO3)c(F)c2)c1C#Cc1ccc(N)nc1` [Example D-219], the IC50 was 105 nM. The figure for `CCc1ncnc(-c2ccc(C(=O)N3CCCO3)cc2)c1C#Cc1ccc(N)nc1` [Example D-222] is 42 nM; for `CCc1ncnc(-c2ccc(C(=O)N3CCCCO3)cc2)c1C#Cc1ccc(N)nc1` [Example D-223] it is 77 nM; for `CCc1ncnc(-c2ccc(C(=O)N3CC(O)CO3)cc2)c1C#Cc1ccc(N)nc1` [Example D-224] it is 39 nM.

On to `CCc1ncnc(-c2ccc(C(=O)N(C)OC)cc2)c1C#Cc1ccc(N)nc1` [Example D-225], for which the half-inhibitory concentration (IC50) worked out at 66 nM. For `Cc1ncnc(-c2ccc(C(=O)N3CCCO3)c(F)c2)c1C#Cc1ccc(N)nc1` [Example D-226] the value was 48 nM; for `Cc1ncnc(-c2ccc(C(=O)N3CCCCO3)c(F)c2)c1C#Cc1ccc(N)nc1` [Example D-227], 47 nM. The figure for `Cc1ncnc(-c2ccc(C(=O)N3CC(O)CO3)c(F)c2)c1C#Cc1ccc(N)nc1` [Example D-228] is 52 nM. On to `CON(C)C(=O)c1ccc(-c2ncnc(C)c2C#Cc2ccc(N)nc2)cc1F` [Example D-229], for which the IC50 is 65 nM. `Cc1ncnc(-c2ccc(C(=O)N3CCCO3)c(Cl)c2)c1C#Cc1ccc(N)nc1` [Example D-230]: the IC50 came out at 37 nM.

For `Cc1ncnc(-c2ccc(C(=O)N3CCCCO3)c(Cl)c2)c1C#Cc1ccc(N)nc1` [Example D-231], the IC50 was found to be 46 nM. The figure for `Cc1ncnc(-c2ccc(C(=O)N3CC(O)CO3)c(Cl)c2)c1C#Cc1ccc(N)nc1` [Example D-232] is 38 nM. The figure for `CCc1ncnc(-c2ccc(C(=O)N3CCC(N4CCOCC4)C3)c(F)c2)c1C#Cc1ccc(N)nc1` [Example D-234] is 156 nM; for `CCc1ncnc(-c2ccc(C(=O)N3CCC(N4CCCC4)C3)c(F)c2)c1C#Cc1ccc(N)nc1` [Example D-235] it is 226 nM; for `CCc1ncnc(-c2ccc(C(=O)N3CC[C@@H](N(C)C)C3)c(F)c2)c1C#Cc1ccc(N)nc1` [Example D-236] it is 269 nM. Take `CCc1ncnc(-c2ccc(C(=O)N3CC[C@H](N(C)C)C3)c(F)c2)c1C#Cc1ccc(N)nc1` [Example D-237]: the IC50 came out at 161 nM.

`CCc1ncnc(-c2ccc(C(=O)N3CCC(N(CC)CC)C3)c(F)c2)c1C#Cc1ccc(N)nc1` [Example D-238]: the half-inhibitory concentration (IC50) is 382 nM. The figure for `CCc1ncnc(-c2ccc(C(=O)N3CCOCC3)c(F)c2)c1C#Cc1ccc(N)nc1` [Example D-239] is 55 nM.

In the case of `CCc1ncnc(-c2ccc(C(=O)N3CCN(C)CC3)nc2)c1C#Cc1ccc(N)nc1` [Example D-240], the IC50 turned out to be 214 nM. With `CCc1ncnc(-c2cc(F)c(C(=O)N3CCN(C)CC3)c(F)c2)c1C#Cc1ccc(N)nc1` [Example E-1], the IC50 is 132 nM. For `CCc1ncnc(-c2cc(F)c(C(=O)N3CCN(C(C)C)CC3)c(F)c2)c1C#Cc1ccc(N)nc1` [Example E-2] the value was 237 nM; for `CCc1ncnc(-c2cc(F)c(C(=O)N3CCN(CC)CC3)c(F)c2)c1C#Cc1ccc(N)nc1` [Example E-3], 276 nM; for `CCCN1CCN(C(=O)c2c(F)cc(-c3ncnc(CC)c3C#Cc3ccc(N)nc3)cc2F)CC1` [Example E-4], 133 nM. In the case of `CCc1ncnc(-c2cc(F)c(C(=O)N3CCN(CCOC)CC3)c(F)c2)c1C#Cc1ccc(N)nc1` [Example E-5], the half-maximal inhibitory concentration (IC50) stood at 78.8 nM. Consider `CCc1ncnc(-c2cc(F)c(C(=O)N3CCN(C4CCOCC4)CC3)c(F)c2)c1C#Cc1ccc(N)nc1` [Example E-6], for which the IC50 was found to be 124 nM. In the case of `CCc1ncnc(-c2cc(F)c(C(=O)N3CCN(CC4CC4)CC3)c(F)c2)c1C#Cc1ccc(N)nc1` [Example E-7], the IC50 came out at 189 nM. The figure for `CCc1ncnc(-c2cc(F)c(C(=O)N3CCN(C(C)(C)C)CC3)c(F)c2)c1C#Cc1ccc(N)nc1` [Example E-8] is 1320 nM; for `CCc1ncnc(-c2cc(F)c(C(=O)N3CCC(N4CCOCC4)CC3)c(F)c2)c1C#Cc1ccc(N)nc1` [Example E-9] it is 199 nM.

Take `CCc1ncnc(-c2cc(F)c(C(=O)N(C)C)c(F)c2)c1C#Cc1ccc(N)nc1` [Example E-10]: the half-maximal inhibitory concentration (IC50) turned out to be 49.1 nM. For the compound `CCc1ncnc(-c2cc(F)c(C(=O)N3CCCC3)c(F)c2)c1C#Cc1ccc(N)nc1` [Example E-11], the IC50 is 125 nM. For `CCc1ncnc(-c2cc(F)c(C(=O)NC)c(F)c2)c1C#Cc1ccc(N)nc1` [Example E-12] the value was 65 nM; for `CCc1ncnc(-c2cc(F)c(C(=O)NCCN3CCOCC3)c(F)c2)c1C#Cc1ccc(N)nc1` [Example E-13], 154 nM. The figure for `CCc1ncnc(-c2cc(F)c(C(=O)N3CCNCC3)c(F)c2)c1C#Cc1ccc(N)nc1` [Example E-14] is 353 nM. `CCc1ncnc(-c2ccc(C(=O)N3CCC[C@H]3CO)c(F)c2)c1C#Cc1ccc(N)nc1` [Example E-17]: the half-inhibitory concentration (IC50) came to 136 nM. For `CCc1ncnc(-c2ccc(C(=O)N3CCN(CC4CC4)CC3)c(Cl)c2)c1C#Cc1ccc(N)nc1` [Example E-18] the value was 228 nM; for `CCc1ncnc(-c2ccc(C(=O)N3CCC4(CC3)OCCCO4)c(Cl)c2)c1C#Cc1ccc(N)nc1` [Example E-19], 90.5 nM. For the compound `CCc1ncnc(-c2ccc(C(=O)N3CCC(C(C)(C)O)CC3)c(Cl)c2)c1C#Cc1ccc(N)nc1` [Example E-20], the IC50 came to 101 nM. Consider `CCc1ncnc(-c2ccc(C(=O)N3CCC(C4CCN(C)CC4)CC3)c(Cl)c2)c1C#Cc1ccc(N)nc1` [Example E-21], for which the half-maximal inhibitory concentration (IC50) was determined as 374 nM. As to `CCc1ncnc(-c2ccc(C(=O)NC3CCCN(C)C3)c(Cl)c2)c1C#Cc1ccc(N)nc1` (centres unmarked) [Example E-22], the IC50 was 510 nM. As to `CCc1ncnc(-c2ccc(C(=O)N3CCC(OC)CC3)c(Cl)c2)c1C#Cc1ccc(N)nc1` [Example E-24], the IC50 came to 93.5 nM. For `CCc1ncnc(-c2ccc(C(=O)N3CCC(C)(O)CC3)c(Cl)c2)c1C#Cc1ccc(N)nc1` [Example E-25] the value was 76.8 nM; for `CCc1ncnc(-c2ccc(C(=O)N3CCC4(CCN(C)CC4)CC3)c(Cl)c2)c1C#Cc1ccc(N)nc1` [Example E-26], 498 nM; for `CCc1ncnc(-c2ccc(C(=O)N3CC[C@H](O)C3)c(Cl)c2)c1C#Cc1ccc(N)nc1` [Example E-27], 58.3 nM.
